This passage reports Ki results from patent US9688698B2, “Heteroaromatic compounds and their use as dopamine D1 ligands” (PFIZER INC., priority 2014, dated 2017).

Each structure is given as a SMILES string. Where a name gives a salt, the structure may show the parent alone.

This assay deals with T1, Human D1 Receptor (Homo sapiens, UniProt P21728).
T1 construct: expressed in transfected cells; host or cells: LTK cell line over-expressing the D1 receptor
Description: Human D1 Receptor Binding Assay ([3H]-SCH23390 competition binding). To be noted: over-expressing LTK human cell lines; 0.5 nM [3H]-SCH23390; 30 min at 37° C.; footnote a = geometric mean of ≧5 determinations, footnote b = single determination; read-out: Human D1 Receptor Binding, Ki (nM); Geometric mean of 2-4 determinations (unless otherwise indicated). How it is done: The affinity of the compounds described herein was determined by competition binding assays similar to those described in Ryman-Rasmussen et al., “Differential activation of adenylate cyclase and receptor internalization by novel dopamine D1 receptor agonists”, Molecular Pharmacology 68(4):1039-1048 (2005).
D1 binding assays were performed using over-expressing LTK human cell lines. […] These ligand and tissue concentrations were used in time course studies to determine linearity and equilibrium conditions for binding. Binding was at equilibrium with the specified amount of tissue in 30 minutes at 37° C. […] The pellet was resuspended in assay buffer [50 mM Tris (pH 7.4@RT) containing 4 mM MgSO4 and 0.5 mM EDTA]. […] Non-specific binding was determined by radioligand binding in the presence of a saturating concentration of (+)-Butaclamol (10 μM), a D1 antagonist. After a 30 minute incubation period at 37° C., assay samples were rapidly filtered through Unifilter-96 GF/B PEI-coated filter plates and rinsed with 50 mM Tris buffer (pH 7.4 at 4° C.). […] The IC50 value (concentration at which 50% inhibition of specific binding occurs) was calculated by linear regression of the concentration-response data in Microsoft Excel. Ki values were calculated according to the Cheng-Prusoff equation: […]

T1 sequence (P21728 whole entry): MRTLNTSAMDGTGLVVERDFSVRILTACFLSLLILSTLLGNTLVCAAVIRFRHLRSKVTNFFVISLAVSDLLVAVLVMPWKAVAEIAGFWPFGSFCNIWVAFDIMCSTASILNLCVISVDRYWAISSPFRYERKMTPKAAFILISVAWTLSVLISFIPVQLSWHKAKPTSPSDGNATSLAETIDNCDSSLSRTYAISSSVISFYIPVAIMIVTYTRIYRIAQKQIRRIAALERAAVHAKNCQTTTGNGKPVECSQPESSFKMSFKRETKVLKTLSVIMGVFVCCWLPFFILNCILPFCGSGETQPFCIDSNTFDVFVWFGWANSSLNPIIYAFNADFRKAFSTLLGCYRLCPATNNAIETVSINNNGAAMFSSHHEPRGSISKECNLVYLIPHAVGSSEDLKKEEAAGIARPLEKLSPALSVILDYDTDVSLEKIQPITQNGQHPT

Broadly, the Ki is the equilibrium dissociation constant of an inhibitor or competing ligand from its target. For `Cc1n[nH]c(=O)c(C)c1-c1ccc(Oc2nccc3ncsc23)cc1` [Example 28, 4,6-dimethyl-5-[4-([1,3]thiazolo[5,4-c]pyridin-4-yloxy)phenyl]pyridazin-3(2H)-one], the Ki came to 25 nM.

For `Cc1ncnc(C)c1-c1ccc(Oc2nccc3ncsc23)cc1Cl` [Example 31, 4-[3-chloro-4-(4,6-dimethylpyrimidin-5-yl)phenoxy][1,3]thiazolo[5,4-c]pyridine], the Ki was 71.9 nM.

With `Cc1ncnc(C)c1-c1cc(F)c(Oc2nccc3ncsc23)c(F)c1` [Example 32, 4[4-(4,6-dimethylpyrimidin-5-yl)-2,6-difluorophenoxy][1,3]thiazolo[5,4-c]pyridine], the Ki came out at 1060 nM.

As to `Cc1ncnc(C)c1-c1cc(F)c(Oc2ncnc3ccsc23)c(F)c1` [Example 33, 4-[4-(4,6-dimethylpyrimidin-5-yl)-2,6-difluorophenoxy]thieno[3,2-d]pyrimidine], the Ki worked out at 864 nM.

As for `Cc1cc(Oc2nccc3ncsc23)c(F)cc1-c1c(C)ncnc1C` [Example 34, 4-[4-(4,6-dimethylpyrimidin-5-yl)-2-fluoro-5-methylphenoxy][1,3]thiazolo[5,4-c]pyridine], the Ki was 151 nM.

With `Cc1ncnc(C)c1-c1ccc(Oc2ncnc3ccsc23)cc1C#N` [Example 35, 2-(4,6-dimethylpyrimidin-5-yl)-5-(thieno[3,2-d]pyrimidin-4-yloxy)benzonitrile], the Ki came to 480 nM.

For `Cc1ncnc(C)c1-c1ccc(Oc2nccc3ccsc23)cc1Cl` [Example 36, 7-[3-chloro-4-(4,6-dimethylpyrimidin-5-yl)phenoxy]thieno[2,3-c]pyridine], the Ki stood at 6.7 nM.

Take `Cc1ncnc(C)c1-c1cc(F)c(Oc2nccc3ccsc23)c(F)c1` [Example 37, 7-[4-(4,6-dimethylpyrimidin-5-yl)-2,6-difluorophenoxy]thieno[2,3-c]pyridine]: the Ki is 79.8 nM.

As for `Cc1cc(Oc2nccc3ccsc23)c(F)cc1-c1c(C)ncnc1C` [Example 38, 7-[4-(4,6-dimethylpyrimidin-5-yl)-2-fluoro-5-methylphenoxy]thieno[2,3-c]pyridine], the Ki was 7.9 nM.

As to `Cc1ncnc(C)c1-c1ccc(Oc2nccc3ccsc23)c(F)c1` [Example 39, 7-[4-(4,6-dimethylpyrimidin-5-yl)-2-fluorophenoxy]thieno[2,3-c]pyridine], the Ki came to 28.2 nM.

For `Cc1ncnc(C)c1-c1ccc(Oc2nccc3ccsc23)c(F)c1C` [Example 40, 7-[4-(4,6-dimethylpyrimidin-5-yl)-2-fluoro-3-methylphenoxy]thieno[2,3-c]pyridine], the inhibition constant (Ki) turned out to be 40.7 nM.

Take `Cc1ncnc(C)c1-c1cc(F)c(Oc2nccc3ccsc23)cc1F` [Example 41, 7-[4-(4,6-dimethylpyrimidin-5-yl)-2,5-difluorophenoxy]thieno[2,3-c]pyridine]: the Ki is 24.3 nM.

On to `COc1cc(Oc2nccc3ccsc23)ccc1-c1c(C)cnnc1C` [Example 42, 7-[4-(3,5-dimethylpyridazin-4-yl)-3-methoxyphenoxy]thieno[2,3-c]pyridine], for which the Ki came to 17.7 nM.

Take `Cc1cnnc(C)c1-c1ccc(Oc2nccc3ccsc23)cc1C#N` [Example 43, 2-(3,5-dimethylpyridazin-4-yl)-5-(thieno[2,3-c]pyridin-7-yloxy)benzonitrile, trifluoroacetate salt]: the Ki was 46.3 nM.

`COc1cc(Oc2nccc3ccsc23)ccc1-c1cccnc1C` [Example 44, 7-[3-methoxy-4-(2-methylpyridin-3-yl)phenoxy]thieno[2,3-c]pyridine, trifluoroacetate salt]: the Ki was found to be 16.4 nM.

`Cc1cnnc(C)c1-c1ccc(Oc2nccc3ccsc23)cc1F` [Example 47, 7-[4-(3,5-dimethylpyridazin-4-yl)-3-fluorophenoxy]thieno[2,3-c]pyridine]: the Ki is 6.1 nM.

For the compound `COc1cc(Oc2nccc3ccsc23)ccc1-c1c(C)ncnc1C` [Example 48, 7-[4-(4,6-dimethylpyrimidin-5-yl)-3-methoxyphenoxy]thieno[2,3-c]pyridine], the Ki was determined as 13.5 nM.

On to `Cc1ncnc(C)c1-c1ccc(Oc2nccc3ccsc23)cc1C#N` [Example 49, 2-(4,6-dimethylpyrimidin-5-yl)-5-(thieno[2,3-c]pyridin-7-yloxy)benzonitrile], for which the Ki was determined as 16.3 nM.

Consider `Cc1ncnc(C)c1-c1ccc(Oc2nccc3ccsc23)cc1F` [Example 50, 7-[4-(4,6-dimethylpyrimidin-5-yl)-3-fluorophenoxy]thieno[2,3-c]pyridine], for which the Ki was 6.7 nM.

Consider `Cc1nc2cnccc2n1-c1ccc(Oc2nccc3ccsc23)cc1` [Example 51, 2-methyl-1-[4-(thieno[2,3-c]pyridin-7-yloxy)phenyl]-1H-imidazo[4,5-c]pyridine, trifluoroacetate salt], for which the Ki was 89.5 nM.

In the case of `Cc1cc(Oc2nccc3ccoc23)ccc1-c1c(C)ncnc1C#N` [Example 52, 5-[4-(furo[2,3-c]pyridin-7-yloxy)-2-methylphenyl]-6-methylpyrimidine-4-carbonitrile], the Ki amounted to 212 nM.

Consider `Cc1cc(Oc2nccc3cc[nH]c23)ccc1-c1nccnc1C` [Example 53, 7-[3-methyl-4-(3-methylpyrazin-2-yl)phenoxy]-1H-pyrrolo[2,3-c]pyridine], for which the Ki turned out to be 1890 nM.

Turning to `Cc1cc(Oc2nccc3cc[nH]c23)ccc1-c1c(C)ncc2nccn12` [Example 54, 6-methyl-5-[2-methyl-4-(1H-pyrrolo[2,3-c]pyridin-7-yloxy)phenyl]imidazo[1,2-a]pyrazine], the Ki is 68.9 nM.

Consider `Cc1cc(Oc2nccc3cc[nH]c23)ccc1-c1c(C)ncnc1C#N` [Example 55, 6-methyl-5-[2-methyl-4-(1H-pyrrolo[2,3-c]pyridin-7-yloxy)phenyl]pyrimidine-4-carbonitrile], for which the inhibitory constant (Ki) was 614 nM.

Take `Cc1nc2ccnc(Oc3ccc(-c4c(C)n[nH]c(=O)c4C)c(C)c3)c2s1` [Example 56, 4,6-dimethyl-5-{2-methyl-4-[(2-methyl[1,3]thiazolo[5,4-c]pyridin-4-yl)oxy]phenyl}pyridazin-3(2H)-one]: the Ki was 106 nM.

For `Cc1cc(Oc2ncnc3ncsc23)ccc1-c1c(C)ncnc1C` [Example 57, 7-[4-(4,6-dimethylpyrimidin-5-yl)-3-methylphenoxy][1,3]thiazolo[4,5-d]pyrimidine], the Ki amounted to 2340 nM.

For the compound `Cc1cc(Oc2nccc3ncsc23)ccc1-c1c(C)ncnc1C` [Example 58, 4-[4-(4,6-dimethylpyrimidin-5-yl)-3-methylphenoxy][1,3]thiazolo[5,4-c]pyridine], the Ki was 75.1 nM.

As for `COc1cc(Oc2nccc3ncsc23)ccc1-c1c(C)ncnc1C` [Example 59, 4-[4-(4,6-dimethylpyrimidin-5-yl)-3-methoxyphenoxy][1,3]thiazolo[5,4-c]pyridine], the Ki was determined as 185 nM.

For `Cc1cc(Oc2nccc3ncsc23)ccc1-c1c(C)cnnc1C` [Example 60, 4-[4-(3,5-dimethylpyridazin-4-yl)-3-methylphenoxy][1,3]thiazolo[5,4-c]pyridine], the Ki turned out to be 65.3 nM.

Regarding `Cc1cnnc(C)c1-c1ccc(Oc2nccc3ncsc23)cc1F` [Example 63, 4-[4-(3,5-dimethylpyridazin-4-yl)-3-fluorophenoxy][1,3]thiazolo[5,4-c]pyridine], the Ki came out at 109 nM.

Regarding `Cc1ncnc(C)c1-c1ccc(Oc2nccc3ncsc23)c(F)c1C` [Example 66, 4-[4-(4,6-dimethylpyrimidin-5-yl)-2-fluoro-3-methylphenoxy][1,3]thiazolo[5,4-c]pyridine], the inhibitory constant (Ki) was determined as 175 nM.

As for `Cc1n[nH]c(=O)c(C)c1-c1ccc(Oc2ncnc3ccsc23)cc1` [Example 67, 4,6-dimethyl-5-[4-(thieno[3,2-d]pyrimidin-4-yloxy)phenyl]pyridazin-3(2H)-one], the Ki came out at 17.7 nM.

As for `Cc1c(-c2ccc(Oc3ncnc4ccsc34)cc2)n(C)c(=O)[nH]c1=O` [Example 68, 1,5-dimethyl-6-[4-(thieno[3,2-d]pyrimidin-4-yloxy)phenyl]pyrimidine-2,4(1H,3H)-dione], the Ki amounted to 15.6 nM.

Regarding `Cc1cc(Oc2nccc3cc[nH]c23)ccc1-c1c(C)n[nH]c(=O)c1C` [Example 69, 4,6-dimethyl-5-[2-methyl-4-(1H-pyrrolo[2,3-c]pyridin-7-yloxy)phenyl]pyridazin-3(2H)-one], the inhibitory constant (Ki) came to 126 nM.
